pEC50: −log10 of the molar value.
Experiments:
[1] = molecular target: Kappa-type opioid receptor (Homo sapiens, UniProt P41145); test: Agonist activity at recombinant kappa opioid receptor expressed in human U2OS cells coexpressing beta arrestin/EA complex assessed as beta arrestin recruitment after 60 mins by luminescence spectrophotometry; format: functional, cell-based
[2] = molecular target: Kappa-type opioid receptor (Cavia porcellus, UniProt P41144); test: Agonist activity at kappa opioid receptor in guinea pig ileum assessed as electric field-stimulated response; format: functional, tissue-based
Sequence of Kappa-type opioid receptor (Cavia porcellus, UniProt P41144) (P41144 whole entry): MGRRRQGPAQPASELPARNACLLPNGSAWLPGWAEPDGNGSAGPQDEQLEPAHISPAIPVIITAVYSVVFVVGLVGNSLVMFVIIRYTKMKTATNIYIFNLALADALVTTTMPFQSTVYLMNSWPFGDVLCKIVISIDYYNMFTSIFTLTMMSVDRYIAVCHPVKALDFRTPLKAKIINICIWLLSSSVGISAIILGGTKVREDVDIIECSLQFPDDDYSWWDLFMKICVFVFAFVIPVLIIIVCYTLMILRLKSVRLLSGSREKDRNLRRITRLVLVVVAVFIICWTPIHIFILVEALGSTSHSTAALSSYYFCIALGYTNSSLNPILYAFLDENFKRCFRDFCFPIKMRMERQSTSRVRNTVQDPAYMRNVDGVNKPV

Sequence of Kappa-type opioid receptor (Homo sapiens, UniProt P41145) (P41145 whole entry): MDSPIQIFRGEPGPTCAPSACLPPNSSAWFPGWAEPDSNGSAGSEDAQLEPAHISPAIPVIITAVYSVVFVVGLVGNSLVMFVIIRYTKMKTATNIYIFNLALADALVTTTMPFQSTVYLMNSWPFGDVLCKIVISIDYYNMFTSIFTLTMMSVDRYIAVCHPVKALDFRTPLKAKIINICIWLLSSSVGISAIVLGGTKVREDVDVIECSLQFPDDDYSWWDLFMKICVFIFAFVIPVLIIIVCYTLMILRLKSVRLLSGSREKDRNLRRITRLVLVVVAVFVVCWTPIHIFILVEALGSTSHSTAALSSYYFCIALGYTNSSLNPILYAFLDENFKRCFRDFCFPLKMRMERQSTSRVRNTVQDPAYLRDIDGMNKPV

CC(C)C[C@@H](NC(=O)[C@@H](Cc1ccccc1)NC(=O)[C@H](N)Cc1ccccc1)C(=O)N[C@H](CCCCN)C(N)=O
pEC50 [1]: 8.52
pEC50 [2]: 9.66

CC(C)C[C@@H](NC(=O)[C@@H](Cc1ccccc1)NC(=O)[C@H](N)Cc1ccccc1)C(=O)N[C@H](CCCCN)C(=O)NCC(=O)NCCSC1CC(=O)N(c2ccc(CCC(=O)N3CCC3=O)cc2)C1=O (stereo partly drawn)
pEC50 [1]: 8.52

CC(C)C[C@@H](NC(=O)[C@@H](Cc1ccccc1)NC(=O)[C@H](N)Cc1ccccc1)C(=O)N[C@H](CCCCN)C(=O)NCC(=O)NCC(=O)NCC(=O)NCCSC1CC(=O)N(c2ccc(CCC(=O)N3CCC3=O)cc2)C1=O (stereo partly drawn)
pEC50 [1]: 8.30

CC(C)C[C@@H](NC(=O)[C@@H](Cc1ccccc1)NC(=O)[C@H](N)Cc1ccccc1)C(=O)N[C@H](CCCCN)C(=O)NCC(=O)NCCSC1CC(=O)N(CCC(=O)NCCOCCOCCC(=O)Nc2ccc(CCC(=O)N3CCC3=O)cc2)C1=O (stereo partly drawn)
pEC50 [1]: 5.83

CC(C)C[C@@H](NC(=O)[C@@H](Cc1ccccc1)NC(=O)[C@H](N)Cc1ccccc1)C(=O)N[C@H](CCCCN)C(=O)NCC(=O)NCC(=O)NCC(=O)NCCSC1CC(=O)N(CCC(=O)NCCOCCOCCC(=O)Nc2ccc(CCC(=O)N3CCC3=O)cc2)C1=O (stereo partly drawn)
pEC50 [1]: 6.75

CC(C)C[C@@H](NC(=O)[C@@H](Cc1ccccc1)NC(=O)[C@H](N)Cc1ccccc1)C(=O)N[C@H](CCCCN)C(=O)N1CCC(CC(=O)NCCOCCOCC(=O)NCC(=O)NCc2cn(-c3ccc(C(=O)Nc4ccc(CCC(=O)N5CCC5=O)cc4)cc3)nn2)CC1
pEC50 [2]: 9.70

CC(C)C[C@@H](NC(=O)[C@@H](Cc1ccccc1)NC(=O)[C@H](N)Cc1ccccc1)C(=O)N[C@H](CCCCN)C(=O)N1CCC(C(=O)NCCOCCOCC(=O)NCC(=O)NCc2cn(-c3ccc(C(=O)Nc4ccc(CCC(=O)N5CCC5=O)cc4)cc3)nn2)CC1
pEC50 [2]: 10.00
